The source of these data is PMC12636026 (Journal of the American Chemical Society, 2025).

For data set [1] the following is noted: clinical agent; ref citation number not given; cited from earlier work. The source says: These findings advance our understanding of ligand suitability in MRI contrast agent design and illustrate the potential of metallo-coiled coils to surpass the performance limits of traditional inorganic complexes. By exploiting the modular natur ...
A further data set has as its system trypsin. The data set is described as follows: 12 µM trypsin (bovine pancreas) in 100 mM HEPES buffer pH 7.5. As to conditions: 37°C, up to 48 h.
The conditions of data set [2]: Zn(II)/phosphate challenge, relaxivity, 2.5 mM complex and 2.5 mM Zn(II); ref Laurent et al.; cited from earlier work. An excerpt: The stability of MRI contrast agents is often benchmarked by the “ratio index”, defined as the time for the relaxation value to drop to 80% of its initial value under Zn(II)/phosphate challenge. […] Laurent et al. monitored complex integrity using relaxivity under equimolar condi ...

“Also recorded” adds a separate entry of the source.

With `O=C([O-])CN1CCN(CC(=O)[O-])CCN(CC(=O)[O-])CCN(CC(=O)[O-])CC1.[Gd+3]` [Gd-DOTA], in data set [1], the “r 1 relaxivity at 1.5 T” value was 4.3 mM^–1 s^–1 and the “r 2 relaxivity at 1.5 T” value was 5.7 mM^–1 s^–1. As for “Ac-G IAAIEQK IAANEWK DAAIXQK IAAIEQK IAAIEQK G-NH2 [KH2-20X]”, in the data set with trypsin, the cleaved bond result is “Lys-G, major, 30 min; also recorded: Lys-I, 30 min”; the fragment found result is reported as “trimeric cross-linked IAANEWK DAAIEQK (peak 5), 30 min”; the not cleaved result was “uncleaved IAANEWK DAAIEQK stretch; individual IAANEWK and DAAIEQK fragments absent”.

On to `CNC[C@H](O)[C@@H](O)[C@H](O)[C@H](O)CO.CNC[C@H](O)[C@@H](O)[C@H](O)[C@H](O)CO.O=C([O-])CN(CCN(CC(=O)[O-])CC(=O)O)CCN(CC(=O)[O-])CC(=O)O.[Gd+3]` [Magnevist], for which the “ratio index (time for relaxation value to drop to 80% of initial value)” value in data set [2] was around 250 min. Take “Ac-G IAAIEQK IAANEWK DAAIXQK IAAIEQK IAAIEQK G-NH2 [Tb(KH2-20X)]”: the cleaved bond result with trypsin was “Lys-G, major; also recorded: Lys-I”. With “Ac-G IAAIEQK IAANEWK DAAIEQK IAAIEQK IAAIEQK G-NH2 [Tb(MB1-2)3]”, the cleaved bond result with trypsin is given as “Lys-G, major”. Same read-out and setting: under “Ac-G IAAIEQK IAANEWK DAAIEQK IAAIEQK IAAIEQK G-NH2 [MB1-2]” stands “Lys-I, within 30 min; also recorded: Lys15-D, within 30 min; also recorded: Lys-G, within 30 min”.

Take `CNC[C@H](O)[C@@H](O)[C@H](O)[C@H](O)CO.O=C([O-])CN1CCN(CC(=O)[O-])CCN(CC(=O)O)CCN(CC(=O)[O-])CC1.[Gd+3]` [Dotarem]: in data set [2], the “ratio index (time for relaxation value to drop to 80% of initial value)” value is listed as “exceeds 5000 min”.
